Toxic doses and inconclusive results are not listed. The calls were made as follows: active = survival T/C of 150% or more; inactive = T/C below 125% in these data.
System: CD2F1 mice, L1210 leukemia ip, survival T/C
Experiment: NCI In Vivo Anticancer Drug Screen. Data for tumor model L1210 Leukemia (intraperitoneal) in CD2F1 (CDF1) mice
Conditions: higher = longer survival
How it was run: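 Antitumor effect is scored in animals hosting a serially transplanted tumor. Values compare compound-dosed animals against vehicle-only controls as a simple quotient.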

[1] = endpoint: mean survival time, dose: 100.0 mg/kg/injection, schedule: Q01DX009 (ip), vehicle: saline with Tween-80

Measured: T/C

Nc1nc(Cl)nc2c1ncn2C1CC(O)C(CO)O1 (centres undefined)
active: endpoint: median survival time, dose: 7.5 mg/kg/injection, schedule: Q03HX009 (ip), vehicle: saline 172 % of control | endpoint: median survival time, dose: 10.0 mg/kg/injection, schedule: Q03HX024 (ip), vehicle: saline 735 % of control | endpoint: median survival time, dose: 12.5 mg/kg/injection, schedule: Q01DX009 (ip), vehicle: Klucel (hydroxypropylcellulose) (HPC) 180 % of control | endpoint: median survival time, dose: 15.0 mg/kg/injection, schedule: Q03HX009 (ip), vehicle: saline 168 % of control | endpoint: median survival time, dose: 15.0 mg/kg/injection, schedule: Q03HX024 (ip), vehicle: saline 345 % of control | endpoint: median survival time, dose: 20.0 mg/kg/injection, schedule: Q03HX024 (ip), vehicle: saline 735 % of control | endpoint: median survival time, dose: 25.0 mg/kg/injection, schedule: Q01DX009 (ip), vehicle: Klucel (hydroxypropylcellulose) (HPC) 192 % of control | endpoint: median survival time, dose: 30.0 mg/kg/injection, schedule: Q03HX009 (ip), vehicle: saline 208 % of control | endpoint: median survival time, dose: 60.0 mg/kg/injection, schedule: Q03HX009 (ip), vehicle: saline 204 % of control
inactive: endpoint: median survival time, dose: 1.56 mg/kg/injection, schedule: Q01DX009 (ip), vehicle: Klucel (hydroxypropylcellulose) (HPC) 124 % of control | endpoint: median survival time, dose: 7.5 mg/kg/injection, schedule: Q03HX009 (ip), vehicle: suspension in saline 107 % of control | endpoint: median survival time, dose: 15.0 mg/kg/injection, schedule: Q03HX009 (ip), vehicle: suspension in saline 100 % of control | endpoint: median survival time, dose: 30.0 mg/kg/injection, schedule: Q03HX009 (ip), vehicle: suspension in saline 109 % of control | endpoint: median survival time, dose: 60.0 mg/kg/injection, schedule: Q03HX009 (ip), vehicle: suspension in saline 109 % of control | endpoint: median survival time, dose: 120.0 mg/kg/injection, schedule: Q03HX009 (ip), vehicle: suspension in saline 113 % of control

O=C(N/N=C/c1cc2c(cc1[N+](=O)[O-])OCO2)c1ccccc1
inactive: endpoint: mean survival time, dose: 12.5 mg/kg/injection, schedule: Q01DX009 (ip), vehicle: other 100 % of control | endpoint: mean survival time, dose: 25.0 mg/kg/injection, schedule: Q01DX009 (ip), vehicle: other 104 % of control | endpoint: mean survival time, dose: 50.0 mg/kg/injection, schedule: Q01DX009 (ip), vehicle: other 94 % of control | endpoint: mean survival time, dose: 100.0 mg/kg/injection, schedule: Q01DX009 (ip), vehicle: other 96 % of control | endpoint: mean survival time, dose: 200.0 mg/kg/injection, schedule: Q01DX009 (ip), vehicle: other 94 % of control

C[CH2][Sn]([CH2]C)([O]S(C)(=O)=O)[O]S(C)(=O)=O
inactive: endpoint: mean survival time, dose: 0.78 mg/kg/injection, schedule: Q01DX009 (ip), vehicle: saline 101 % of control | endpoint: mean survival time, dose: 1.56 mg/kg/injection, schedule: Q01DX009 (ip), vehicle: saline 107 % of control | endpoint: mean survival time, dose: 3.12 mg/kg/injection, schedule: Q01DX009 (ip), vehicle: saline 107 % of control | endpoint: mean survival time, dose: 6.25 mg/kg/injection, schedule: Q01DX009 (ip), vehicle: saline 111 % of control | endpoint: mean survival time, dose: 12.5 mg/kg/injection, schedule: Q01DX009 (ip), vehicle: saline 114 % of control

Cc1ccc(S(=O)(=O)N/N=C/c2ccccc2Cl)cc1
inactive: endpoint: mean survival time, dose: 12.5 mg/kg/injection, schedule: Q01DX009 (ip), vehicle: Klucel (hydroxypropylcellulose) (HPC) 93 % of control | endpoint: mean survival time, dose: 25.0 mg/kg/injection, schedule: Q01DX009 (ip), vehicle: Klucel (hydroxypropylcellulose) (HPC) 91 % of control | endpoint: mean survival time, dose: 50.0 mg/kg/injection, schedule: Q01DX009 (ip), vehicle: Klucel (hydroxypropylcellulose) (HPC) 90 % of control | endpoint: mean survival time, dose: 100.0 mg/kg/injection, schedule: Q01DX009 (ip), vehicle: Klucel (hydroxypropylcellulose) (HPC) 98 % of control

CCc1nc(N)nc(N)c1-c1ccc(Cl)c([N+](=O)[O-])c1
inactive: endpoint: mean survival time, dose: 3.12 mg/kg/injection, schedule: Q01DX009 (ip), vehicle: saline with Tween-80 101 % of control | endpoint: mean survival time, dose: 6.25 mg/kg/injection, schedule: Q01DX009 (ip), vehicle: saline with Tween-80 106 % of control

CC(C(N)=O)C1CCC2(C)CCC(=O)C(C)C2C1O (centres undefined)
inactive: endpoint: mean survival time, dose: 100.0 mg/kg/injection, schedule: Q04DX002 (ip), vehicle: saline with Tween-80 104 % of control | endpoint: mean survival time, dose: 200.0 mg/kg/injection, schedule: Q04DX002 (ip), vehicle: saline with Tween-80 120 % of control | endpoint: mean survival time, dose: 400.0 mg/kg/injection, schedule: Q04DX002 (ip), vehicle: saline with Tween-80 120 % of control

Cc1cc(N(CCCOS(C)(=O)=O)CCCOS(C)(=O)=O)ccc1C=Nc1ccc2ccccc2c1
inactive: endpoint: mean survival time, dose: 25.0 mg/kg/injection, schedule: Q01DX009 (ip), vehicle: saline with Tween-80 93 % of control | endpoint: mean survival time, dose: 50.0 mg/kg/injection, schedule: Q01DX009 (ip), vehicle: saline with Tween-80 93 % of control | [1] 88 % of control

O=C(N/N=C/Cc1ccccc1)c1cc2ccccc2cc1O
inactive: [1] 101 % of control | endpoint: mean survival time, dose: 200.0 mg/kg/injection, schedule: Q01DX009 (ip), vehicle: saline with Tween-80 95 % of control | endpoint: mean survival time, dose: 400.0 mg/kg/injection, schedule: Q01DX009 (ip), vehicle: saline with Tween-80 108 % of control

CC1CC([O-])=N/[N+]1=C\c1ccccc1 (centres undefined)
inactive: endpoint: mean survival time, dose: 100.0 mg/kg/injection, schedule: Q04DX003 (ip), vehicle: saline 101 % of control | endpoint: mean survival time, dose: 200.0 mg/kg/injection, schedule: Q04DX003 (ip), vehicle: saline 96 % of control | endpoint: mean survival time, dose: 400.0 mg/kg/injection, schedule: Q04DX003 (ip), vehicle: saline 94 % of control

O=C(NC(=O)c1ccccc1)c1ccccc1
inactive: endpoint: mean survival time, dose: 100.0 mg/kg/injection, schedule: Q01DX001 (ip), vehicle: Klucel (hydroxypropylcellulose) (HPC) 101 % of control | endpoint: mean survival time, dose: 100.0 mg/kg/injection, schedule: Q04DX003 (ip), vehicle: saline with Tween-80 103 % of control | endpoint: mean survival time, dose: 200.0 mg/kg/injection, schedule: Q01DX001 (ip), vehicle: Klucel (hydroxypropylcellulose) (HPC) 102 % of control | endpoint: mean survival time, dose: 200.0 mg/kg/injection, schedule: Q04DX003 (ip), vehicle: saline with Tween-80 102 % of control | endpoint: mean survival time, dose: 400.0 mg/kg/injection, schedule: Q01DX001 (ip), vehicle: Klucel (hydroxypropylcellulose) (HPC) 96 % of control | endpoint: mean survival time, dose: 400.0 mg/kg/injection, schedule: Q04DX003 (ip), vehicle: saline with Tween-80 97 % of control
